Laboratory results: patent US11180474B2 (BRISTOL-MYERS SQUIBB COMPANY, priority 2016, dated 2021)

Key:
human TLR7 = molecular target: T1, human TLR7 (Homo sapiens, UniProt Q9NYK1); assay: TLR7 inhibition reporter assay (HEK-Blue cells, SEAP reporter, gardiquimod stimulation); assay type: cell-based; conditions: HEK-Blue cells overexpressing human TLR7, gardiquimod 7.5 μM
T1 construct: host or cells: HEK-Blue cells
T1 sequence (Q9NYK1 27-1049): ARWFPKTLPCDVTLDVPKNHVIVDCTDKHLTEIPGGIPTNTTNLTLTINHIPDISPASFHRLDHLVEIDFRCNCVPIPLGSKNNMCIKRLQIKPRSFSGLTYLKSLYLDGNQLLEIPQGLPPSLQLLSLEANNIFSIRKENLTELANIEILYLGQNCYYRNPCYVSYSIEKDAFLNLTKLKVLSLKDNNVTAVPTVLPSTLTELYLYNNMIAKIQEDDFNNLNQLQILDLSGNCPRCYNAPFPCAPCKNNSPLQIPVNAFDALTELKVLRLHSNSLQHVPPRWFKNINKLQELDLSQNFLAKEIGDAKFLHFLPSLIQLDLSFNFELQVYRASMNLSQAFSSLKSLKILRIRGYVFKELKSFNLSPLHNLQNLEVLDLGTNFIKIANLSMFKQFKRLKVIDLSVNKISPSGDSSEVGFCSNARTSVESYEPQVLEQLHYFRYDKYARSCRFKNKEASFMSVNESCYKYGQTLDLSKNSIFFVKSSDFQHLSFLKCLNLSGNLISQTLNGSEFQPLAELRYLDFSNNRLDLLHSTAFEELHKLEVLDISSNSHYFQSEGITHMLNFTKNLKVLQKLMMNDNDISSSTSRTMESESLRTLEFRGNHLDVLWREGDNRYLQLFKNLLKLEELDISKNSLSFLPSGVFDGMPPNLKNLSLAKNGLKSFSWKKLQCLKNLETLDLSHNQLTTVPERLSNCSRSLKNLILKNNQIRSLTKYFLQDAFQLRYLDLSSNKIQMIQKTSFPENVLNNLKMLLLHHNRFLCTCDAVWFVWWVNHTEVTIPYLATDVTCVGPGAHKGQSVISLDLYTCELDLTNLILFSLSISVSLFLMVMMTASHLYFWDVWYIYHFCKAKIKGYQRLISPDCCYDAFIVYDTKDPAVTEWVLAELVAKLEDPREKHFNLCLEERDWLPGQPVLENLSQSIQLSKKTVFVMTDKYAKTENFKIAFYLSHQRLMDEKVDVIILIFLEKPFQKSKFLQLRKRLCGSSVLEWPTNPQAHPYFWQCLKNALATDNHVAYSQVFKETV
In short: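 Cells (15000/well for TLR7, 20,000 for TLR8) were treated with compounds over 0.05 nM-50 μM final. After 22 h at 37° C, 5% CO2, SEAP was measured with HEK-Blue Detection reagent; percent inhibition was taken as reduction of agonist-plus-DMSO signal relative to a known inhibitor.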

human TLR8 = molecular target: T2, human TLR8 (Homo sapiens, UniProt Q9NR97); assay: TLR8 inhibition reporter assay (HEK-Blue cells, SEAP reporter, R848 stimulation); assay type: cell-based; conditions: HEK-Blue cells overexpressing human TLR8, R848 15.9 μM
T2 construct: host or cells: HEK-Blue cells
T2 sequence (Q9NR97 27-1041): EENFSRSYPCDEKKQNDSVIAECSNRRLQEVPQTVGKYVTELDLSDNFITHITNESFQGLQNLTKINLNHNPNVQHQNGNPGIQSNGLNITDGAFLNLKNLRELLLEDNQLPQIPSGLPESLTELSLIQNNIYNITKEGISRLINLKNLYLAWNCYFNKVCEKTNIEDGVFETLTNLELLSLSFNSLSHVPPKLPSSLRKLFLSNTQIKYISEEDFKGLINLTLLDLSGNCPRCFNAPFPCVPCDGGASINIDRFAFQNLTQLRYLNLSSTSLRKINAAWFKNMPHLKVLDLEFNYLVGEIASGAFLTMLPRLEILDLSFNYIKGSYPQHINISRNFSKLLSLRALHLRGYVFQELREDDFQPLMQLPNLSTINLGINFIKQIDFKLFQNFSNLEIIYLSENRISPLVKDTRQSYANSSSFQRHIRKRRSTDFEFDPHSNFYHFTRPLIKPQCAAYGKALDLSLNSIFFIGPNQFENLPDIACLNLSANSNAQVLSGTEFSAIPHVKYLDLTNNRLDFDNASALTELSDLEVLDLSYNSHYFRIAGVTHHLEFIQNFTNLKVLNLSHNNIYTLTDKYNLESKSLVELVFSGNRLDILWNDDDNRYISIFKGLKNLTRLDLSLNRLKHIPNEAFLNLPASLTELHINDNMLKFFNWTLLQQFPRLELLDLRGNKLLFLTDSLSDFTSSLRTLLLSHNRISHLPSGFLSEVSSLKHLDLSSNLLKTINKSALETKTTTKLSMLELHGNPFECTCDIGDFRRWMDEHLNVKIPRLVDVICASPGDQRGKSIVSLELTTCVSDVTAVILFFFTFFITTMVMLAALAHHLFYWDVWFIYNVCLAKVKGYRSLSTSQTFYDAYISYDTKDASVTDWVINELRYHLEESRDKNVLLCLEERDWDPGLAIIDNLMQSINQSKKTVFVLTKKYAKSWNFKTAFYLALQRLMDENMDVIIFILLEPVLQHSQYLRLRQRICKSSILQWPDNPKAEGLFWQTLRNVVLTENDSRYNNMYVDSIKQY
Procedure: TLR7/8/9 Inhibition Reporter Assays
Briefly, cells are seeded into Greiner 384 well plates (15000 cells per well for TLR7, 20,000 for TLR8 and 25,000 for TLR9) and then treated with test compounds in DMSO to yield a final dose response concentration range of 0.05 nM-50 μM. […] After a 22 hour incubation at 37° C., 5% CO2, SEAP levels are determined with the addition of HEK-Blue™ Detection reagent (Invivogen), a cell culture medium that allows for detection of SEAP, according to manufacturer's specifications. The percent inhibition is determined as the % reduction in the HEK-Blue signal present in wells treated with agonist plus DMSO alone compared to wells treated with a known inhibitor.

human TLR9 = molecular target: T3, human TLR9 (Homo sapiens, UniProt Q9NR96); assay: TLR9 inhibition reporter assay (HEK-Blue cells, SEAP reporter, ODN2006 stimulation); assay type: cell-based; conditions: HEK-Blue cells overexpressing human TLR9, ODN2006 5 nM
T3 construct: host or cells: HEK-Blue cells
T3 sequence (Q9NR96 26-1032): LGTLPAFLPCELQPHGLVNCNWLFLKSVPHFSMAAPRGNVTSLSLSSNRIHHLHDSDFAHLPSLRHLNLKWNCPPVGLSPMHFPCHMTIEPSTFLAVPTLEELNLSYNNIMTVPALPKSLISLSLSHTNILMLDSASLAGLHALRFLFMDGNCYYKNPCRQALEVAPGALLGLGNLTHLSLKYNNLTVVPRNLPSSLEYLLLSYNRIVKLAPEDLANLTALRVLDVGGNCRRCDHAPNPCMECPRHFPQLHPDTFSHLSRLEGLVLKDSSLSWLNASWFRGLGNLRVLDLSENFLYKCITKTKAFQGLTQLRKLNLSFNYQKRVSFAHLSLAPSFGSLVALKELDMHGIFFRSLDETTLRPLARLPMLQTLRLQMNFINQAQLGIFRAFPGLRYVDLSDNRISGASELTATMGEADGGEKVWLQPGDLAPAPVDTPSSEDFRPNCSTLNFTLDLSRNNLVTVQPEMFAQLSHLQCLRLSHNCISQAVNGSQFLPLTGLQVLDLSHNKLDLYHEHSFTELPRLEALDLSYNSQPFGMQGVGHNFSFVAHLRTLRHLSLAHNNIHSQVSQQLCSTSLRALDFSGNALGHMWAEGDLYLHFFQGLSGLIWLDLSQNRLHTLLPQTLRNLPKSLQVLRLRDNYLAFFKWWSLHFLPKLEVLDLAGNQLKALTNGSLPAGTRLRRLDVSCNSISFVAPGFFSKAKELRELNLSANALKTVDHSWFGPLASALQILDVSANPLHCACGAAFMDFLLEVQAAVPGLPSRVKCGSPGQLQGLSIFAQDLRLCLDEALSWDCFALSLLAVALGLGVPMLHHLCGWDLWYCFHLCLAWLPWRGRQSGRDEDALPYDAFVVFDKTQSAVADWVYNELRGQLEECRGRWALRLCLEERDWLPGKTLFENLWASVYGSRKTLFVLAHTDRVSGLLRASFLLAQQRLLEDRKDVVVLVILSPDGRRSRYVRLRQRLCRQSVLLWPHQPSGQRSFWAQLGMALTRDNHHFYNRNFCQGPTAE
In short: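 Human TLR7/8/9 HEK-Blue reporter lines; dose range 0.05 nM–50 μM; 30 min RT preincubation; stimulus gardiquimod 7.5 μM / R848 15.9 μM / ODN2006 5 nM respectively; 22 h, 37 °C; SEAP detected colorimetrically.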

TLR9 = assay: In vivo mouse TLR9 PD model (CpG-ODN challenge, plasma IL-6); conditions: oral
Procedure: In Vivo Mouse TLR7 and TLR9 PD Model:
Adult male C57BL/6 mice were used for the experiments. Mice (7 to 10 per group) were randomized into different treatment groups based on body weight. Mice from the respective treatment groups were administered orally with vehicle or test compound. Thirty min after the oral administration of vehicle or test compound, mice were challenged with intraperitoneal injection of gardiquimod for TLR7 PD model and CpG-ODN for TLR9 PD model. Ninety minutes after gardiquimod injection and 120 minutes after CpG-ODN injection, mice were bled under isoflurane anaesthesia and plasma IL-6 level was estimated by using commercially available ELISA kit (BD Biosciences). At the end of experiment, mean cytokine data was plotted and one way ANOVA with Dunnett's test was performed to calculate the significance of test compound treated group vs. vehicle control group. Percent inhibition of cytokine induction was calculated for test compound treated group vs vehicle control group.

CCc1c(-c2ccc(OC)c(OC)c2)[nH]c2ccc(C3CCN(C4CCN(Cc5ccoc5)CC4)CC3)cc12 [Example 146, 2-(3,4-dimethoxyphenyl)-3-ethyl-5-(1′-(furan-3-ylmethyl)-[1,4′-bipiperidin]-4-yl)-1H-indole] gave an IC50 (human TLR7) of 586 nM and an IC50 (human TLR8) of 178 nM.

With CCc1c(-c2ccc(OC)c(OC)c2)[nH]c2ccc(C3CCN(C4CCN(Cc5nccn5C)CC4)CC3)cc12 [Example 136, 2-(3,4-dimethoxyphenyl)-3-ethyl-5-(1′-((1-methyl-1H-imidazol-2-yl)methyl)-[1,4′-bipiperidin]-4-yl)-1H-indole] the IC50 (human TLR7) was 735 nM and the IC50 (human TLR8) was 330 nM.

In the case of CNCCN1CCC(c2ccc3[nH]c(-c4ccc(OC)c(OC)c4)c(C#N)c3c2)CC1 [Example 118, 2-(3,4-dimethoxyphenyl)-5-(1-(2-(methylamino)ethyl)piperidin-4-yl)-1H-indole-3-carbonitrile-di-trifluoroacetic acid], the IC50 (human TLR8) is reported as 347 nM and the IC50 (human TLR9) is reported as 260 nM.

COc1ccc(-c2[nH]c3ccc(C4CCN(C(=O)COC5CCN(C)CC5)CC4)cc3c2C(C)C)cc1OC [Example 315, 1-(4-(2-(3,4-dimethoxyphenyl)-3-isopropyl-1H-indol-5-yl)piperidin-1-yl)-2-((1-methylpiperidin-4-yl)oxy)ethan-1-one] gave an IC50 (human TLR7) of 538 nM and an IC50 (human TLR8) of 824 nM.

Molecule CNCCN1CCC(c2ccc3[nH]c(-c4ccc(OC)c(OC)c4)c(Cl)c3c2)CC1 [Example 119] has an IC50 (human TLR8) of 555 nM and an IC50 (human TLR9) of 409 nM.

COc1ccc(-c2[nH]c3ccc(C4CCN(Cc5ccncc5)CC4)cc3c2C)cc1OC [Example 20, 2-(3,4-dimethoxyphenyl)-3-methyl-5-(1-(pyridin-4-ylmethyl)piperidin-4-yl)-1H-indole] gave an IC50 (human TLR8) of 978 nM and an IC50 (human TLR9) of 1740 nM.

Molecule CCc1c(-c2ccc(OC)c(OC)c2)[nH]c2ccc(C3CCN(C4CCN(Cc5c(C)[nH]c6ccccc56)CC4)CC3)cc12 [Example 129, 2-(3,4-dimethoxyphenyl)-3-ethyl-5-(1′-((2-methyl-1H-indol-3-yl)methyl)-[1,4′-bipiperidin]-4-yl)-1H-indole] has an IC50 (human TLR7) of 1140 nM and an IC50 (human TLR8) of 378 nM.

Work on COc1ccc(-c2[nH]c3ccc(C4CCN(Cc5[nH]cnc5C)CC4)cc3c2C(C)C)cc1OC [Example 267, 2-(3,4-dimethoxyphenyl)-3-isopropyl-5-(1-((4-methyl-1H-imidazol-5-yl)methyl)piperidin-4-yl)-1H-indole] yielded an IC50 (human TLR8) of 25 nM.

In the case of CNCCN1CCC(c2ccc3[nH]c(-c4ccc(OC)c(OC)c4)c(C(C)C)c3c2)CC1 [Example 196, 2-(4-(2-(3,4-dimethoxyphenyl)-3-isopropyl-1H-indol-5-yl)piperidin-1-yl)-N-methylethan-1-amine], the IC50 (human TLR9) is reported as 521 nM, the “% inhibition of IL6” value (TLR9; dose 1 mg/kg) is reported as 47% and the “% inhibition of IL6” value (TLR9; dose 3 mg/kg) is reported as 75%. For the same molecule, the “% inhibition of IL6” value (TLR9; dose 10 mg/kg) was 83%, the “% inhibition of IL6” value (TLR9; dose 30 mg/kg) was 88% and the “% inhibition of IL6” value (TLR9; dose 100 mg/kg) was 62%.

Molecule CCc1c(-c2ccc(OC)c(OC)c2)[nH]c2ccc(C3CCN(C(=O)CNC(CO)CO)CC3)cc12 [Example 165, 2-((1,3-dihydroxypropan-2-yl)amino)-1-(4-(2-(3,4-dimethoxyphenyl)-3-ethyl-1H-indol-5-yl)piperidin-1-yl)ethan-1-one] has an IC50 (human TLR7) of 107 nM and an IC50 (human TLR9) of 5170 nM.

Molecule CCc1c(-c2ccc(OC)c(OC)c2)[nH]c2ccc(C3CCN(C(=O)CN4CCN(C(C)=O)CC4)CC3)cc12 [Example 171, 2-(4-acetylpiperazin-1-yl)-1-(4-(2-(3,4-dimethoxyphenyl)-3-ethyl-1H-indol-5-yl)piperidin-1-yl)ethan-1-one] has an IC50 (human TLR7) of 488 nM and an IC50 (human TLR9) of at least 50000 nM.
